This note sets out measurements from US20130164813A1, “Method for Inhibiting Transglutaminase 2 Activity Using 2-alkyloxy-3-phenylethynyl-4a,5-dihydropyrido[2,3-b]pyrazine Derivatives” (DONGGUK UNIVERSITY INDUSTRY-ACADEMIC COOPERATION FOUNDATION, priority 2011, published 2013).

The inhibition is the percentage by which the read-out fell short of the control. Low readings indicate a response near the control, high ones a response far below the control. As usually defined, the GI50 is the concentration at which growth is held to half of that of the control.

One test concerns the target T1, Transglutaminase 2 (Cavia cutleri, UniProt P08587).
T1 construct: purchased Sigma-Aldrich T5398
T1 sequence (P08587 1-690): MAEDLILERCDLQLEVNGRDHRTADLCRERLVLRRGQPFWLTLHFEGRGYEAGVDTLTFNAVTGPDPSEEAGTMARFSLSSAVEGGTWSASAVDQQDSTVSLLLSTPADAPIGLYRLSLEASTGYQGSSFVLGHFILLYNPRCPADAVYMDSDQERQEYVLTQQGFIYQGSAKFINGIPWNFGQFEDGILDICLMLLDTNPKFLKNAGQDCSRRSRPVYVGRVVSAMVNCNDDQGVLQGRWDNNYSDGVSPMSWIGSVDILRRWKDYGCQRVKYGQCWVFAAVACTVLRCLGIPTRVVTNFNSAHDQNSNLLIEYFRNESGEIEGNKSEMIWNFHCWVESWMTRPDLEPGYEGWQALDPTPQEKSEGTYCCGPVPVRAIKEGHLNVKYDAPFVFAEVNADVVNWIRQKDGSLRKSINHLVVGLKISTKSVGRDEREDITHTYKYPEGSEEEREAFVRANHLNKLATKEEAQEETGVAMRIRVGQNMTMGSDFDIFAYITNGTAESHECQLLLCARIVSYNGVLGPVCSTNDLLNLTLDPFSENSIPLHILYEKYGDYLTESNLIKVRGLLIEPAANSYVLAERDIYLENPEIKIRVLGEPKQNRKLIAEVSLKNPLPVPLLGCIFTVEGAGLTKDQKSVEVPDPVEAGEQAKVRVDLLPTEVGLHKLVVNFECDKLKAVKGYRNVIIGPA
Briefly: In vitro assay for inhibitory effect on TGase 2 ([1,4-14C] putrescine incorporation into succinylated casein). In kind it is biochemical. The procedure:
In vitro Assay for Inhibitory effect of 2-alkyloxy-3-phenylethynyl-4a,5-dihydropyrido[2,3-b]pyrazine derivative on TGase 2.
Method. […] Succinylated casein was purchased from Calbiochem (Cat. No. 573464), and 1 g of the powder was dissolved in 50 ml of a reaction buffer solution containing 5 mM DTT (0.1 M Tris-acetate (pH 8.0), 10 mM CaCl2, 0.15 M NaCl, 1.0 mM EDTA). This solution was stored in a deep freezer for further use. [1,4-14C] Putrescine dihydrochloride was purchased from GE Healthcare (Cat. No. CFA301), and the stock solution was diluted with distilled water to yield a radiological dose of 5 μCi/ml. Transglutaminase 2 was purchased from Sigma-Aldrich (Cat. No. T5398), and diluted with distilled water to yield a final concentration of 1 unit/ml. 2-Alkyloxy-3-phenylethynyl-4a,5-dihydropyrido[2,3-b]pyrazine derivative was dissolved at a concentration of 1 mM to prepare its stock solution, and the stock solution was diluted with DMSO to prepare solutions having various concentrations.
450 μl of succinylated casein solution and 50 μl of [1,4-14C] putrescine dihydrochloride solution were mixed together to prepare a substrate solution. 96 μl of the reaction buffer, 3 μl of the stock solution of the compounds of the present invention, and 1 μl of the stock solution of transglutaminase were mixed together to prepare each sample, followed by incubation at 37° C. for 10 min. 500 μl of the substrate solution and 100 μl of sample solution were mixed well, and the mixture was incubated at 37° C. for 2 hrs and then the reaction terminated by adding 4.5 ml of cold (4° C.) 7.5% TCA. The final solution was stored at 4° C. for 1 hr. The TCA-protein precipitates were filtered through a GF/glass fiber filter, washed with 25 ml of cold 5% TCA, and dried. Radioactivity of cross-linked protein was measured using a β-counter (Beckman Coulter), and compensated by the activity of DMSO-control group as a standard. The activity of transglutaminase was represented by the measured values.

The subject of a further test is 786-O. Nature of the test: SRB test, renal cancer cell line 786-O. It counts as cell-based. As to conditions: Homo sapiens, 786-0, 48 hours, read-out: IG50 (×E−7). The procedure:
(§1) Test of Anti-cancer efficacy in the Cancer cell line. In order to examine anti-cancer efficacy of 2-alkyloxy-3-phenylethynyl-4a,5-dihydropyrido[2,3-b]pyrazine derivatives, Eight renal cancer cell lines were treated to perform an SRB test. In order to compare the anti-cancer efficacy, sutent® (Pfizer) was used for comparison.
(§2) 1) Method (SRB Test). The cancer cell lines were cultured in an RPMI 1640 medium containing 5% fetal bovine serum and 2 mM L-glutamine. The cancer cells were inoculated into a 96 well microtiter plate at a density of 5,000 or 40,000 cells/well. The cells were incubated at 37° C., 5% CO2, 95% air and 100% humidity for 24 hours prior to drug treatment.
(§3) After 24 hours, the cells were fixed with TCA at the time of drug addition (Tz). The drug was treated by 10-fold or log scale serial dilutions, and the efficacy was examined at a concentration of 5 point or more. After drug treatment, the cells were incubated for 48 hours. […] Bound stain was subsequently solubilized with trizma base, and the absorbance was read at 515 nm.
(§4) Growth inhibitory efficacy was measured by using the seven absorbance measurements. [time zero, (Tz), control growth, (C), and test growth in the presence of drug at the five concentration levels (Ti)], the percentage growth was calculated at each of the drug concentrations levels. […]
A general note: The SRB assay estimates cell density from bound dye.

In another test the test system is ACHN. Nature of the test: SRB test, renal cancer cell line ACHN. In kind it is cell-based. As to conditions: Homo sapiens, 48 hours, read-out: IG50 (×E−7). The procedure: as §1, §2, §3, §4
The test system of the next test is A498. Briefly: SRB test, renal cancer cell line A498. In kind it is cell-based. As to conditions: Homo sapiens, A498, 48 hours, read-out: IG50 (×E−7). The procedure:
as §1, §2, §3, §4

Another test concerns CAKI-I. Briefly: SRB test, renal cancer cell line CAKI-I. It counts as cell-based. As to conditions: 48 hours, read-out: IG50 (×E−7). The procedure: as §1, §2, §3, §4
A further test has as its system RXF393. Briefly: SRB test, renal cancer cell line RXF393. The note with it: Homo sapiens, RXF 393, RXF393, 48 hours, read-out: IG50 (×E−7). In kind it is cell-based. The procedure:
as §1, §2, §3, §4

The next test has as its system SN12C. Nature of the test: SRB test, renal cancer cell line SN12C. In kind it is cell-based. The note with it: Homo sapiens, 48 hours, read-out: IG50 (×E−7). The procedure: as §1, §2, §3, §4
For another test, the system named is TK10. Nature of the test: SRB test, renal cancer cell line TK10. In kind it is cell-based. The note with it: Homo sapiens, TK-10, TK10, 48 hours, read-out: IG50 (×E−7). The procedure: as §1, §2, §3, §4
The next test relates to US31. Briefly: SRB test, renal cancer cell line US31. In kind it is cell-based. As to conditions: 48 h, read-out: IG50 (×E−7). The procedure:
as §1, §2, §3, §4

The test system of a further test is renal cancer cell lines. Nature of the test: SRB test, eight renal cancer cell lines together. In kind it is cell-based. The procedure: as §1, §2, §3, §4
The test system of a further test is MDA-MB-231 cells. Nature of the test: Anti-cancer efficacy on MDA231 breast cancer cell line by animal study (subcutaneous xenograft). As to conditions: 4 mg/kg, compared to the cisplatin-treated group, FIGS. 3 and 4. In kind it is in vivo.

Method for MDA-MB-231 cells: Evaluation of Anti-cancer efficacy of TGase 2 inhibitor on MDA231 breast cancer cell line by animal study.
MDA-MB-231 cells were cultured in a DMEM medium containing 10% FBS.
8×10^6 of MDA-MB-231 cells were subcutaneously injected into 7-week-old female Balb/c-nude mice. Four TGase inhibitors and doxorubicin were co-administered, and the effects were examined Group 1: saline. […] Group 3: 2-alkyloxy-3-phenylethynyl-4a,5-dihydropyrido[2,3-b]pyrazine derivative (4 mg/kg).
The prepared cancer cell, MDA-MB231/luciferase (8×10^6 cells/head) was subcutaneously injected into animals 7 days after their arrival. When a volume of the injected cancer cells reached 100 mm3, drug treatment was started.
After injection of MDA-MB-231, when a volume of the injected tumor reached 100 mm3, drug treatment was performed. After 3-4 weeks, the mice were sacrificed.
After the tumor volume reached 100 mm3, the size was measured three times per week during the drug treatment period. The tumor volume was calculated as ‘long axis×long axis×short axis/2’.

For `CN(C)c1ccccc1C#Cc1nc2ncccc2nc1OCCN1CCCCC1` [Example 43, N,N-dimethyl-2-((2-(2-(piperidin-1-yl)ethoxy)pyrido[3,2-b]pyrazin-3-yl)ethynyl)benzenamine], at Transglutaminase 2, 10 µM produced 54% inhibition. As for `CN(C)c1ccccc1C#Cc1nc2ncccc2nc1OCCN1CCCC1` [Example 42, N,N-dimethyl-2-((2-(2-(pyrrolidin-1-yl)ethoxy)pyrido[3,2-b]pyrazin-3-yl)ethynyl)benzenamine], at Transglutaminase 2, the inhibition at 10 µM amounted to 63%. On the same count and under the same terms, then `COc1ccc(C#Cc2nc3ncccc3nc2OCCN2CCCC2)cc1` [Example 14, 3-(4-methoxyphenylethynyl)-2-(2-pyrrolidin-1-ylethoxy)pyrido[3,2-b]pyrazine], with 64%. With `Cc1ccc(C#Cc2nc3ncccc3nc2OCCN2CCCC2)cc1` [Example 21, 2-(2-(pyrrolidin-1-yl)ethoxy)-3-(p-tolylethynyl)pyrido[3,2-b]pyrazine], 10 µM produced 52% inhibition against Transglutaminase 2. Compound `C(#Cc1nc2ncccc2nc1OCCCN1CCCCC1)c1ccccc1` [Example 5, 3-(phenylethynyl)-2-(3-(piperidin-1-yl)propoxy)pyrido[3,2-b]pyrazine] gave an inhibition at 10 µM at Transglutaminase 2 of 54%. For `COc1ccc(C#Cc2nc3ncccc3nc2OCCN2CCCCC2)cc1` [Example 15, 3-(4-methoxyphenylethynyl)-2-(2-piperidin-1-ylethoxy)pyrido[3,2-b]pyrazine], at 10 µM the inhibition on Transglutaminase 2 was 51%. `O=C1CCCN1CCCOc1nc2cccnc2nc1C#Cc1ccccc1` [Example 7, 1-(3-(3-(phenylethynyl)pyrido[3,2-b]pyrazin-2-yloxy)propyl)pyrrolidin-2-one] came in with an inhibition at 10 µM at Transglutaminase 2 of 43%. As to `C(#Cc1nc2ncccc2nc1OCCN1CCOCC1)c1ccccc1` [Example 3, 4-(2-(3-(phenylethynyl)pyrido[3,2-b]pyrazin-2-yloxy)ethyl)morpholine], 10 µM produced 47% inhibition against Transglutaminase 2.

For `CN(C)c1ccc(C#Cc2nc3ncccc3nc2OCCN2CCCC2)cc1` [Example 8, N,N-dimethyl-4-((2-(2-(pyrrolidin-1-yl)ethoxy)pyrido[3,2-b]pyrazin-3-yl)ethynyl)benzenamine], on Transglutaminase 2, 10 µM produced 68% inhibition. The same measure, in the same setting: then `C(#Cc1nc2ncccc2nc1OCCN1CCCCC1)c1ccccc1` [Example 2, 3-phenylethynyl-2-(2-(piperidin-1-yl)ethoxy)pyrido[2,3-b]pyrazine], with 83%; and `C(#Cc1nc2ncccc2nc1OCCCN1CCCC1)c1ccccc1` [Example 4, 3-(phenylethynyl)-2-(3-(pyrrolidin-1-yl)propoxy)pyrido[3,2-b]pyrazine], with 59%.

As for `C(#Cc1nc2ncccc2nc1OCCN1CCCC1)c1ccccc1` [Example 1, 3-phenylethynyl-2-(2-(pyrrolidin-1-yl)ethoxy)pyrido[2,3-b]pyrazine], the IC50 against Transglutaminase 2 (FIG. 1) came out at 33.8 nM; in the test on 786-O, 225 nM; in the test with ACHN, 137 nM; with A498 it was 5610 nM; in the test on CAKI-I, 71 nM; in the test with RXF393, 179 nM. Further, the IC50 is 186 nM in the test on SN12C, 529 nM in the test on TK10 and 5490 nM in the test with US31. This compound came in with an inhibition at 10 µM against Transglutaminase 2 of 91%. Besides, in the test with renal cancer cell lines (eight renal cancer cell lines, SRB, read-out: Average GI50 over all cell lines), the GI50 is 430 nM. Further, the “anti-cancer efficacy compared with SUTENT” value in the test with renal cancer cell lines (renal cancer cell line, SRB growth rate, FIG. 2) was “better than that of SUTENT®”. Moreover, the “reduction in the tumor size” value with MDA-MB-231 cells was “the best effect of a reduction in the tumor size”. Compound `CN(C)c1ccc(C#Cc2nc3ncccc3nc2OCCN2CCCCC2)cc1` [Example 9, N,N-dimethyl-4-((2-(2-(piperidin-1-yl)ethoxy)pyrido[3,2-b]pyrazin-3-yl)ethynyl)benzenamine] had an inhibition at 10 µM against Transglutaminase 2 of 57%. In turn, `C(#Cc1nc2ncccc2nc1OCCCN1CCOCC1)c1ccccc1` [Example 6, 4-(3-(3-(phenylethynyl)pyrido[3,2-b]pyrazin-2-yloxy)propyl)morpholine] returned an inhibition at 10 µM against Transglutaminase 2 of 32%.
